Source: PubChem BioAssay (NCI)
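Interpolation was linear, between the two tested concentrations surrounding the appropriate level; five concentrations were tested over 48 hours in 96-well plates. Definition used: TGI = concentration required for complete inhibition of growth.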

Assays:
Assay in all cases: inhibition of tumour cell growth, NCI panel, 48 h
SR leukemia = tested on: SR leukemia
A498 renal = tested on: A498 renal
OVCAR-4 ovarian = tested on: OVCAR-4 ovarian
UACC-257 melanoma = tested on: UACC-257 melanoma
COLO 205 colon = tested on: COLO 205 colon
OVCAR-3 ovarian = tested on: OVCAR-3 ovarian
MDA-N = tested on: MDA-N
UO-31 renal = tested on: UO-31 renal
SF-268 CNS = tested on: SF-268 CNS
MCF7 breast = tested on: MCF7 breast

O=c1[nH]cc(N=Cc2cc(Cl)ccc2O)c(=O)[nH]1
TGI (SR leukemia): 24.8 µM
TGI (A498 renal): > 100 µM
TGI (OVCAR-4 ovarian): 12.3 µM
TGI (UACC-257 melanoma): > 100 µM
TGI (COLO 205 colon): 75.7 µM
TGI (OVCAR-3 ovarian): > 100 µM
TGI (MDA-N): > 100 µM
TGI (UO-31 renal): > 100 µM
TGI (SF-268 CNS): 47.3 µM
TGI (MCF7 breast): > 100 µM

O=c1cc(-c2ccccc2)oc2c1ccc1[nH]c3ccccc3c(=O)c12
TGI (SR leukemia): > 100 µM
TGI (A498 renal): > 100 µM
TGI (OVCAR-4 ovarian): > 100 µM
TGI (UACC-257 melanoma): > 100 µM
TGI (COLO 205 colon): > 100 µM
TGI (OVCAR-3 ovarian): > 100 µM
TGI (MDA-N): > 100 µM
TGI (UO-31 renal): > 100 µM
TGI (SF-268 CNS): > 100 µM
TGI (MCF7 breast): > 100 µM

CC(OP(=O)(O)O)C(N)C(=O)O (configuration not stated)
TGI (SR leukemia): > 100 µM
TGI (A498 renal): > 100 µM
TGI (OVCAR-4 ovarian): > 100 µM
TGI (UACC-257 melanoma): > 100 µM
TGI (COLO 205 colon): > 100 µM
TGI (OVCAR-3 ovarian): > 100 µM
TGI (MDA-N): > 100 µM
TGI (UO-31 renal): > 100 µM
TGI (SF-268 CNS): > 100 µM
TGI (MCF7 breast): > 100 µM

O=C1C=C(N2CCN(c3ncccn3)CC2)C(=O)c2c(O)ccc(O)c21
TGI (SR leukemia): > 100 µM
TGI (A498 renal): > 100 µM
TGI (OVCAR-4 ovarian): > 100 µM
TGI (UACC-257 melanoma): > 100 µM
TGI (COLO 205 colon): > 100 µM
TGI (OVCAR-3 ovarian): > 100 µM
TGI (MDA-N): 31.3 µM
TGI (UO-31 renal): > 100 µM
TGI (SF-268 CNS): > 100 µM
TGI (MCF7 breast): > 100 µM

COC(=O)c1c2c(cc3c1CC1(Cc4cc5c(c(C)c4C1)CCC5)C3)CCC2 (configuration not stated)
TGI (SR leukemia): > 100 µM
TGI (A498 renal): > 100 µM
TGI (OVCAR-4 ovarian): > 100 µM
TGI (UACC-257 melanoma): > 100 µM
TGI (OVCAR-3 ovarian): > 100 µM
TGI (MDA-N): > 100 µM
TGI (UO-31 renal): > 100 µM
TGI (SF-268 CNS): > 100 µM
TGI (MCF7 breast): > 100 µM

Cc1nc(C)c(N2CCN(CN)CC2)c(=O)[nH]1
TGI (SR leukemia): > 100 µM
TGI (A498 renal): > 100 µM
TGI (OVCAR-4 ovarian): > 100 µM
TGI (UACC-257 melanoma): > 100 µM
TGI (COLO 205 colon): > 100 µM
TGI (OVCAR-3 ovarian): > 100 µM
TGI (MDA-N): > 100 µM
TGI (UO-31 renal): > 100 µM
TGI (SF-268 CNS): > 100 µM
TGI (MCF7 breast): > 100 µM

CC(C)(C)c1cc(OCc2nnc3sc(Cc4ccccc4)nn23)c(Cl)cc1OCc1nnc2sc(Cc3ccccc3)nn12
TGI (SR leukemia): 70.6 µM
TGI (A498 renal): 67.2 µM
TGI (OVCAR-4 ovarian): > 100 µM
TGI (UACC-257 melanoma): 63.5 µM
TGI (COLO 205 colon): > 100 µM
TGI (OVCAR-3 ovarian): > 100 µM
TGI (MDA-N): > 100 µM
TGI (UO-31 renal): > 100 µM
TGI (SF-268 CNS): > 100 µM
TGI (MCF7 breast): 37.2 µM

O=[N+]([O-])c1ccc(N2N=C(c3c(O)ccc4ccccc34)CC2c2ccc(Cl)cc2)c([N+](=O)[O-])c1 (configuration not stated)
TGI (SR leukemia): 31.4 µM
TGI (A498 renal): 63.9 µM
TGI (OVCAR-4 ovarian): > 100 µM
TGI (UACC-257 melanoma): > 100 µM
TGI (COLO 205 colon): 29.5 µM
TGI (OVCAR-3 ovarian): > 100 µM
TGI (MDA-N): > 100 µM
TGI (UO-31 renal): > 100 µM
TGI (SF-268 CNS): > 100 µM
TGI (MCF7 breast): > 100 µM

COC(=O)/C=C\n1nc(Br)c(=O)[nH]c1=O
TGI (SR leukemia): > 100 µM
TGI (A498 renal): > 100 µM
TGI (OVCAR-4 ovarian): > 100 µM
TGI (UACC-257 melanoma): > 100 µM
TGI (COLO 205 colon): > 100 µM
TGI (OVCAR-3 ovarian): > 100 µM
TGI (MDA-N): > 100 µM
TGI (UO-31 renal): > 100 µM
TGI (SF-268 CNS): > 100 µM
TGI (MCF7 breast): > 100 µM

CSc1nnc(SCc2nn3c(=O)cc(C)nc3s2)s1
TGI (SR leukemia): > 100 µM
TGI (A498 renal): > 100 µM
TGI (OVCAR-4 ovarian): > 100 µM
TGI (UACC-257 melanoma): > 100 µM
TGI (COLO 205 colon): > 100 µM
TGI (OVCAR-3 ovarian): > 100 µM
TGI (MDA-N): > 100 µM
TGI (UO-31 renal): > 100 µM
TGI (SF-268 CNS): > 100 µM
TGI (MCF7 breast): > 100 µM

Cc1cn(C2CC(COCc3ccccc3)N(CCO[Si](C)(C)C(C)(C)C)O2)c(=O)[nH]c1=O (configuration not stated)
TGI (SR leukemia): 71.4 µM
TGI (A498 renal): 36.8 µM
TGI (OVCAR-4 ovarian): 33.4 µM
TGI (COLO 205 colon): 28.4 µM
TGI (OVCAR-3 ovarian): 28.4 µM
TGI (MDA-N): 27.9 µM
TGI (UO-31 renal): 28.2 µM
TGI (SF-268 CNS): 35.7 µM
TGI (MCF7 breast): 33 µM

O=C1C=CC(=O)c2c(O)c(N3CCOCC3)c(Cl)c(O)c21
TGI (SR leukemia): > 7.34 µM
TGI (A498 renal): 3.01 µM
TGI (OVCAR-4 ovarian): 0.663 µM
TGI (UACC-257 melanoma): 0.911 µM
TGI (COLO 205 colon): 0.395 µM
TGI (OVCAR-3 ovarian): 1.31 µM
TGI (MDA-N): 0.396 µM
TGI (UO-31 renal): 0.892 µM
TGI (SF-268 CNS): 3.19 µM
TGI (MCF7 breast): 0.486 µM

CC/C=C/c1cc2c(cc1O)CCC1C2CC[C@@]2(C)C1CC[C@@H]2O (some centres not stated)
TGI (SR leukemia): 0.817 µM
TGI (A498 renal): 9.03 µM
TGI (OVCAR-4 ovarian): 35.3 µM
TGI (UACC-257 melanoma): 25.2 µM
TGI (COLO 205 colon): 27.5 µM
TGI (OVCAR-3 ovarian): 1.6 µM
TGI (MDA-N): 0.637 µM
TGI (UO-31 renal): 18.3 µM
TGI (SF-268 CNS): 24.8 µM
TGI (MCF7 breast): 10.1 µM

Cc1nc2ccc(Br)cc2c(=O)n1-c1ccc(N)cc1
TGI (SR leukemia): > 100 µM
TGI (A498 renal): > 100 µM
TGI (OVCAR-4 ovarian): > 100 µM
TGI (UACC-257 melanoma): > 100 µM
TGI (COLO 205 colon): > 100 µM
TGI (OVCAR-3 ovarian): > 100 µM
TGI (MDA-N): > 100 µM
TGI (UO-31 renal): > 100 µM
TGI (SF-268 CNS): > 100 µM
TGI (MCF7 breast): > 100 µM

Cc1ccc(S(=O)(=O)OCCC2CN(C(=O)OCc3ccccc3)C(C)(C)O2)cc1 (configuration not stated)
TGI (SR leukemia): > 100 µM
TGI (A498 renal): > 100 µM
TGI (OVCAR-4 ovarian): > 100 µM
TGI (UACC-257 melanoma): > 100 µM
TGI (COLO 205 colon): > 100 µM
TGI (OVCAR-3 ovarian): > 100 µM
TGI (MDA-N): > 100 µM
TGI (UO-31 renal): 15.4 µM
TGI (MCF7 breast): 33.7 µM

COC(=O)C1C(=O)CC(C)(O)C(C(=O)OC)C1c1ccc(N(C)C)cc1 (configuration not stated)
TGI (SR leukemia): > 100 µM
TGI (A498 renal): > 100 µM
TGI (OVCAR-4 ovarian): > 100 µM
TGI (UACC-257 melanoma): > 100 µM
TGI (COLO 205 colon): > 100 µM
TGI (OVCAR-3 ovarian): > 100 µM
TGI (MDA-N): > 100 µM
TGI (UO-31 renal): > 100 µM
TGI (SF-268 CNS): > 100 µM
TGI (MCF7 breast): > 100 µM

C=C(CN(CC)CC)C1(c2ccccc2)CC2(CCCC2)C(=O)O1 (configuration not stated)
TGI (SR leukemia): > 100 µM
TGI (A498 renal): > 100 µM
TGI (OVCAR-4 ovarian): > 100 µM
TGI (UACC-257 melanoma): 98.9 µM
TGI (COLO 205 colon): > 100 µM
TGI (OVCAR-3 ovarian): > 100 µM
TGI (MDA-N): > 100 µM
TGI (UO-31 renal): > 100 µM
TGI (SF-268 CNS): > 100 µM
TGI (MCF7 breast): > 100 µM

Cc1nc2ccc(Cl)cc2c2c1CCO2
TGI (SR leukemia): > 100 µM
TGI (A498 renal): > 100 µM
TGI (OVCAR-4 ovarian): > 100 µM
TGI (UACC-257 melanoma): > 100 µM
TGI (COLO 205 colon): > 100 µM
TGI (OVCAR-3 ovarian): > 100 µM
TGI (MDA-N): > 100 µM
TGI (UO-31 renal): > 100 µM
TGI (SF-268 CNS): > 100 µM
TGI (MCF7 breast): > 100 µM
